{
  "source": "patent US20220062299A1",
  "about": "“USE OF GLUCOCORTICOID STEROIDS IN PREVENTING AND TREATING CONDITIONS OF MUSCLE WASTING, AGING AND METABOLIC DISORDER” (NORTHWESTERN UNIVERSITY, priority 2018, published 2022)",
  "format_in_all_cases": "in vivo, mouse",
  "key": {"[1]": {"system": "isolated dystrophic myofibers", "assay": "2-NBDG uptake assay in live myofibers", "conditions": "mdx mice; weekly prednisone", "experimental": "2-NBDG uptake assay and glycemia/lactate monitoring. 2-NBDG uptake assay in live myofibers was conducted adapting previously reported conditions (Zou et al., 2005). FDB muscles were collected and carefully treated with collagenase type II and hand pipetting to liberate single myofibers, following reported procedures (Demonbreun and McNally, 2015). Myofibers from two FDB muscles were collected in 1 ml Ringer's solution (for 1 l, 7.2 g NaCl, 0.17 g CaCl2, 0.37 g KCl; pH, 7.4). 200 μl of myofiber suspension were dispensed per well of chambered coverglass (#155382; Thermo Fisher, Waltham, Mass.) and imaged as baseline condition for both transmitted light (1 ms integration) and green fluorescent channels (100 ms integration) at the Zeiss Axio Observer A1 microscope, using 20× short-range objective and the ZEN 2 software (version 2011; Zeiss, Jena, Germany). […] 2-NBDG uptake was quantitated as relative fluorescent units, calculated as intra-myofiber fluorescence after incubation subtracted of average baseline fluorescence. Fluorescence intensity was quantitated through serial analysis of acquired images (3 areas of approximately 85 μm^2 were analyzed for average fluorescence value per myofiber; >10 myofibers were analyzed per mouse) with ImageJ software (Schneider et al., 2012). […]"}, "[2]": {"system": "aging Wildtype (WT) mice", "assay": "Aging wildtype mice, 40 weeks weekly prednisone", "experimental": "Dosing of metabolic and endocrine biomarkers. Glycogen was quantitated using the Glycogen Assay Kit (#ab65620; Abcam, Cambridge, Mass.) from approximately 25 mg frozen-pulverized whole tissue, following manufacturer's instructions and internal standards for calculating μg/mg values. For measurement of whole-tissue ATP/NAD^+ levels, approximately 25 mg frozen-pulverized tissue was extracted in 10% perchloric acid and neutralized in 0.75 M K2CO3, as previously described (Ramsey et al., 2009). NAD+ and ATP were measured by high-pressure liquid chromatography (HPLC) with Shimadzu LC-20A pump (Shimadzu Scientific Instr Inc, Addison, Ill.) and UV-VIS detector, using a Supelco LC-18-T column (15 cm×[…]; #58970-U; Millipore-Sigma, St Louis, Mo.). […] ATP and NAD^+ eluted as sharp peaks at 3 and 14 minutes, respectively, and were normalized to tissue weight of frozen liver tissue for calculating pmol/mg values. Corticosterone was measured in mouse serum and cortisol was measured in human serum using dedicated ELISA kits (#ADI-900-097, Enzo Life Science, Farmingdale, N.Y.; #K7430-100, BioVision, Milpitas, Calif.) according to manufacturer's instructions and internal standards to calculate ng/ml values. Insulin levels were quantitated in mouse and human serum with species-specific ELISA kits (#10-1247-01 (mouse-specific); #10-1113-01 (human-specific); Mercodia, Uppsala, Sweden), following manufacturer's instructions and internal standards to calculate ng/ml values. Free fatty acids were quantitated using Enzychrom Free Fatty Acid Assay kit (#EFFA-100; BioAssay Systems, Hayward, Calif.), following kit's instructions and standards to calculate μM (serum) and nmol/mg (tissue) values. For ketone body dosing, beta-hydroxybutyrate was quantitated using a dedicated colorimetric assay kit (#700190; Cayman Chemical, Ann Arbor, Mich.), following manufacturer's instructions and standards to calculate μM (serum) and nmol/mg (tissue) values. […] Colorimetric reactions were quantitated using a Synergy HTX multi-mode plate reader (BioTek®, Winooski, Vt.) and averaging four reads/sample at appropriate wavelengths. […]\nHistology. […] Myofiber/adipocyte CSA quantitation was conducted on 400 myofibers/adipocytes per tissue per mouse. […] Area quantitation was performed by means of ImageJ (Schneider et al., 2012). Sample processing, imaging and CSA quantitation were conducted blinded to treatment groups.\nMuscle function, whole-body plethysmography, echocardiography. Forelimb grip strength was monitored using a meter (Cat #1027SM; Columbus Instruments, Columbus, Ohio) blinded to treatment groups. […]"}, "[3]": {"system": "mdx; Dysf-null; Sgcg-null mice", "assay": "Once-weekly glucocorticoids in three murine models of muscle disease", "conditions": "1 mg/kg once-weekly, contrary to daily dosing", "source_text": "Glucocorticoid steroids are widely prescribed drugs for chronic inflammatory conditions, and their daily intake generally correlates with muscle wasting and weakness, osteoporosis, obesity and metabolic disorders. […] (Quattrocelli et al, J Clin Invest 2017; Quattrocelli et al, Am J Pathol 2017; Quattrocelli et al., JCI Insight. 2019 Dec. 19; 4(24). pii: 132402. doi: 10.1172/jci.insight.132402)."}, "[4]": {"conditions": "aging WT mice, weekly prednisone, 40 weeks"}},
  "data": [
    {"smiles": "C[C@]12C=CC(=O)C=C1CC[C@@H]1[C@@H]2C(=O)C[C@@]2(C)[C@H]1CC[C@]2(O)C(=O)CO", "note": "[prednisone, Prednisone]", "values": [
      {"measurement": "myogenic glucose uptake (2-NBDG in isolated myofibers)", "setting": "[1]", "result": "enhanced"},
      {"measurement": "grip strength, tetanic and specific force, and muscle mass (myofiber CSA)", "setting": "[2]; aged WT mice, weekly prednisone, 40 weeks", "result": "improved"},
      {"measurement": "levels of ATP, NAD+ and glycogen in muscle and heart tissues", "setting": "[2]; aging WT mice, weekly prednisone 1 mg/kg i.p., 40 weeks from the age of 6 weeks", "result": "increased"},
      {"measurement": "parameters of cardiac contractile function (echocardiography)", "setting": "[2]; [4]", "result": "improved"},
      {"measurement": "parameters of respiratory function (whole-body plethysmography)", "setting": "[2]; [4]", "result": "improved"},
      {"measurement": "muscle force and mass", "setting": "[3]", "result": "improved"}
    ]}
  ]
}
